Data taken from US8183236B2, “Compounds with HIV-1 integrase inhibitory activity and use thereof as anti-HIV/AIDS therapeutics” (University of Southern California, priority 2007, dated 2012).

biological target: T1, HIV-1 integrase (wild-type IN) (Human immunodeficiency virus type 1 group M subtype B, UniProt P12497); experiment: HIV-1 integrase 3′-processing assay (32P-labeled 21-mer, gel); type: biochemical; conditions: unit inferred; read-out: IN inhibition activity 3′-processing
Text: (§1) The oligonucleotides 21 top, 5′-[…]-3′ (SEQ ID NO:1) and 21 bot, 5′-[…]-3′ (SEQ ID NO:2) were purchased from Norris Cancer Center Core Facility (University of Southern California) and purified by UV shadowing on polyacrylamide gel. To analyze the extent of 3′-processing and strand transfer using 5′-end labeled substrates, 21 top was 5′-end labeled using T4 polynucleotide kinase (Epicentre, Madison, Wis.) and γ [^32P]-ATP (Amersham Biosciences or ICN). The kinase was heat-inactivated and 21 bot was added in 1.5-molar excess. The mixture was heated at 95° C., allowed to cool slowly to room temperature, and run through a spin 25 mini-column (USA Scientific) to separate annealed double-stranded oligonucleotide from unincorporated material.
(§2) To determine the extent of 3′-processing and strand transfer, wild-type IN was preincubated at a final concentration of 200 nM with the inhibitor in reaction buffer (50 mM NaCl, 1 mM HEPES, pH 7.5, 50 μM EDTA, 50 μM dithiothreitol, 10% glycerol (w/v), 7.5 mM MnCl2, 0.1 mg/ml bovine serum albumin, 10 mM 2-mercaptoethanol, 10% dimethyl sulfoxide, and 25 mM MOPS, pH 7.2) at 30° C. for 30 min. Then, 20 nM of the 5′-end ^32P-labeled linear oligonucleotide substrate was added, and incubation was continued for an additional one hour. Reactions were quenched by the addition of an equal volume (16 μl) of loading dye (98% deionized formamide, 10 mM EDTA, 0.025% xylene cyanol and 0.025% bromophenol blue). An aliquot (5 μl) was electrophoresed on a denaturing 20% polyacrylamide gel (0.09 M tris-borate pH 8.3, 2 mM EDTA, 20% acrylamide, 8M urea).
(§3) Gels were dried, exposed in a PhosphorImager cassette, and analyzed using a Typhoon 8610 Variable Mode Imager (Amersham Biosciences) and quantitated using ImageQuant 5.2. Percent inhibition (% I) was calculated using the following equation: %I=100×[1−(D−C)/(N−C)]
(§4) where C, N, and D are the fractions of 21-mer substrate converted to 19-mer (3′-processing product) or strand transfer products for DNA alone, DNA plus IN, and IN plus drug, respectively. The IC50 values were determined by plotting the logarithm of drug concentration versus percent inhibition to obtain concentration that produced 50% inhibition. […]

Q: With `O=C(O)c1cc(-c2ccc(/C=C/c3cc(C(F)(F)F)[nH]c(=O)n3)o2)ccc1Cl` [AV15A12] as the compound, how does the IC50 read?
A: Its IC50 is 74 ± 32 µM.

Q: How did the IC50 turn out when `O=C(O)c1cc(-c2ccc(/C=N/Nc3nc4nonc4nc3Nc3ccccc3F)o2)ccc1Cl` [AV15A14] was run?
A: Its IC50 is 16 ± 8 µM.

Q: `O=C(O)c1cc(-c2ccc(/C=N/Nc3nc4nonc4nc3Nc3ccc(F)cc3)o2)ccc1Cl` [AV15A15] was tested. Which IC50 did it give?
A: The IC50 was 12 ± 6 µM.

Q: `O=C(O)c1cccc(-c2ccc(/C=N/Nc3nc(N4CCOCC4)nc(N4CCOCC4)n3)o2)c1` [AV15A16] was tested. Which IC50 did it give?
A: Its IC50 is over 100 µM.

Q: How did the IC50 turn out when `COc1cc(/C=N/Nc2nc3nonc3nc2Nc2ccccc2F)ccc1O` [AV15A18] was run?
A: The IC50 was 30 ± 12 µM.

Q: For `COC(=O)c1ccc(/C=N/Nc2nc3nonc3nc2Nc2ccccc2F)cc1` [AV15A19], which IC50 is on record?
A: Its IC50 is over 100 µM.

Q: Which IC50 does the source give for `O=C(O)c1cccc(-c2ccc(/C=N/NC(=O)c3ccc(C(=O)N/N=C/c4ccc(-c5cccc(C(=O)O)c5)o4)cc3)o2)c1` [AV15A20] here?
A: The IC50 was over 100 µM.

Q: With `Cc1cccc(Nc2nc3nonc3nc2N/N=C/c2ccc(-c3cccc(C(=O)O)c3)o2)c1` [AV15A21] as the compound, how does the IC50 read?
A: Its IC50 is 10 ± 5 µM.

Q: Which IC50 does the source give for `O=C(O)c1cc(-c2ccc(/C=c3\sc4nc5ccccc5n4c3=O)o2)ccc1Cl` [AV15A22] here?
A: Its IC50 is 23 ± 3 µM.

Q: With `N#Cc1c(/N=C/c2ccc(-c3cccc(C(=O)O)c3)o2)sc2c1CCCC2` [AV15A23] as the compound, how does the IC50 read?
A: Its IC50 is 89 ± 20 µM.

Q: `O=C(O)c1cc(-c2ccc(/C=N/Nc3nc4nonc4nc3Nc3cccc(Br)c3)o2)ccc1O` [AV15A24] was tested. Which IC50 did it give?
A: The IC50 was 5 ± 3 µM.

Q: With `COc1cc(-c2nc3ccccn3c2/N=C/c2ccc(-c3ccc(Cl)c(C(=O)O)c3)o2)ccc1O` [AV15A25] as the compound, how does the IC50 read?
A: The IC50 was over 100 µM.

Q: How did the IC50 turn out when `CN(C)c1nc(NCc2ccccc2)nc(N/N=C/c2ccc(-c3cccc(C(=O)O)c3)o2)n1` [AV15A26] was run?
A: Its IC50 is over 100 µM.

Q: Which IC50 does the source give for `O=C(N/N=C/c1ccc(-c2ccc(Cl)cc2)o1)c1ccccc1` [AV15A29] here?
A: The IC50 was over 100 µM.

Q: How did the IC50 turn out when `Cc1cccc(Nc2nc3nonc3nc2N/N=C/c2ccc(-c3ccccc3Cl)o2)c1C` [AV15A33] was run?
A: The IC50 was over 100 µM.

Q: How did the IC50 turn out when `O=C(O)c1cccc(-c2ccc(/C=N/Nc3nc(Nc4ccccc4)nc(Nc4ccccc4)n3)o2)c1` [AV15A42] was run?
A: Its IC50 is 89 ± 19 µM.

same assay, conditions: wild-type IN 200 nM, 7.5 mM MnCl2; read-out: Inhibition of IN Catalytic Activities IC50 (μM) 3′-processing

Q: For `COC(=O)c1ccc(C(=O)OC)c(NC(=O)c2ccc(C)c([N+](=O)[O-])c2)c1` [Compound X19], which IC50 is on record?
A: Its IC50 is 92 µM.

Q: With `COc1ccccc1C=C1SC(=S)N(CCC(=O)Nc2ccc(O)cc2)C1=O` [Compound X118] as the compound, how does the IC50 read?
A: Its IC50 is 99 ± 3 µM.

Q: Which IC50 does the source give for `O=C(CCCN1C(=O)/C(=C/c2cccs2)SC1=S)Nc1nc2ccccc2s1` [Compound X178] here?
A: The IC50 was 98 ± 5 µM.

Q: With `O=C1C(=Cc2c(NCCO)nc3ccccn3c2=O)SC(=S)N1Cc1ccco1` [Compound X281] as the compound, how does the IC50 read?
A: The IC50 was over 100 µM.

Q: `COC(=O)C1=C(C(=O)OC)SC(=C2C(=S)C(C)(C)N(C(=O)c3cccnc3)c3ccc(C)cc32)S1` [RT25] was tested. Which IC50 did it give?
A: The IC50 was over 100 µM.

biological target: T1, HIV-1 integrase (wild-type IN); experiment: HIV-1 integrase strand transfer assay (32P-labeled 21-mer, gel); type: biochemical; conditions: unit inferred; read-out: IN inhibition activity Strand transfer
Text: as §1, §2, §3, §4

Q: With `O=C(O)c1cc(-c2ccc(/C=C/c3cc(C(F)(F)F)[nH]c(=O)n3)o2)ccc1Cl` [AV15A12] as the compound, how does the IC50 read?
A: Its IC50 is 50 ± 25 µM.

Q: For `O=C(O)c1cc(-c2ccc(/C=N/Nc3nc4nonc4nc3Nc3ccccc3F)o2)ccc1Cl` [AV15A14], which IC50 is on record?
A: The IC50 was 13 ± 5 µM.

Q: For `O=C(O)c1cc(-c2ccc(/C=N/Nc3nc4nonc4nc3Nc3ccc(F)cc3)o2)ccc1Cl` [AV15A15], which IC50 is on record?
A: Its IC50 is 6.5 ± 1 µM.

Q: How did the IC50 turn out when `O=C(O)c1cccc(-c2ccc(/C=N/Nc3nc(N4CCOCC4)nc(N4CCOCC4)n3)o2)c1` [AV15A16] was run?
A: Its IC50 is over 100 µM.

Q: `COc1cc(/C=N/Nc2nc3nonc3nc2Nc2ccccc2F)ccc1O` [AV15A18] was tested. Which IC50 did it give?
A: The IC50 was 17 ± 5 µM.

Q: How did the IC50 turn out when `COC(=O)c1ccc(/C=N/Nc2nc3nonc3nc2Nc2ccccc2F)cc1` [AV15A19] was run?
A: The IC50 was over 100 µM.

Q: How did the IC50 turn out when `O=C(O)c1cccc(-c2ccc(/C=N/NC(=O)c3ccc(C(=O)N/N=C/c4ccc(-c5cccc(C(=O)O)c5)o4)cc3)o2)c1` [AV15A20] was run?
A: The IC50 was 95 µM.

Q: How did the IC50 turn out when `Cc1cccc(Nc2nc3nonc3nc2N/N=C/c2ccc(-c3cccc(C(=O)O)c3)o2)c1` [AV15A21] was run?
A: The IC50 was 7 ± 2 µM.

Q: With `O=C(O)c1cc(-c2ccc(/C=c3\sc4nc5ccccc5n4c3=O)o2)ccc1Cl` [AV15A22] as the compound, how does the IC50 read?
A: Its IC50 is 15 ± 4 µM.

Q: For `N#Cc1c(/N=C/c2ccc(-c3cccc(C(=O)O)c3)o2)sc2c1CCCC2` [AV15A23], which IC50 is on record?
A: Its IC50 is 62 ± 7 µM.

Q: How did the IC50 turn out when `O=C(O)c1cc(-c2ccc(/C=N/Nc3nc4nonc4nc3Nc3cccc(Br)c3)o2)ccc1O` [AV15A24] was run?
A: Its IC50 is 3.4 ± 2 µM.

Q: How did the IC50 turn out when `COc1cc(-c2nc3ccccn3c2/N=C/c2ccc(-c3ccc(Cl)c(C(=O)O)c3)o2)ccc1O` [AV15A25] was run?
A: The IC50 was over 100 µM.

Q: How did the IC50 turn out when `CN(C)c1nc(NCc2ccccc2)nc(N/N=C/c2ccc(-c3cccc(C(=O)O)c3)o2)n1` [AV15A26] was run?
A: The IC50 was 88 µM.

Q: For `N#C/C(=C\c1ccc(-c2cc(Cl)ccc2C(=O)O)o1)c1nc2ccccc2[nH]1` [AV15A52], which IC50 is on record?
A: Its IC50 is 51 µM.

same assay, conditions: wild-type IN 200 nM, 7.5 mM MnCl2; read-out: Inhibition of IN Catalytic Activities IC50 (μM) Strand Transfer

Q: How did the IC50 turn out when `CCOC(=O)CCc1cc(C(=O)OCC)c(CCC(=O)OCC)cc1C(=O)OCC` [Compound X35] was run?
A: Its IC50 is 94 µM.

Q: How did the IC50 turn out when `Cc1ccc(C=C2SC(=S)N(CCC(=O)Nc3cccc(C(=O)O)c3)C2=O)cc1` [Compound X100] was run?
A: The IC50 was over 100 µM.

Q: How did the IC50 turn out when `Cc1nc(=O)c(-c2ccccc2)c(C)n1-c1ccc(C(=O)O)c(O)c1` [Compound X181] was run?
A: The IC50 was 73 ± 24 µM.

Q: For `O=C(NN1C(=O)/C(=C/c2ccc(Br)cc2)SC1=S)c1ccccc1O` [Compound X220], which IC50 is on record?
A: The IC50 was 27 ± 6 µM.

Q: `O=C(Nc1nncs1)c1c(O)c2ccccc2n(Cc2ccccc2)c1=O` [LM33] was tested. Which IC50 did it give?
A: Its IC50 is 36 µM.

Q: How did the IC50 turn out when `Nc1nonc1-c1nc2ccccc2n1CC(=O)N/N=C/c1ccc(-c2cccc(C(=O)O)c2)o1` [NST20] was run?
A: The IC50 was 68 µM.

Q: For `C=CCn1c(=O)c(C(=O)Nc2ccccc2OC)c(O)c2ccccc21` [XR3], which IC50 is on record?
A: The IC50 was 25 µM.

Q: Which IC50 does the source give for `CCn1c(=O)c(C(=O)Nc2ccccc2C(=O)OC)c(O)c2ccccc21` [XR15] here?
A: The IC50 was 9.5 µM.
